Experimental data reported in patent US8212038B2, “Methods and compositions for controlling ectoparasites” (HatchTech Pty Ltd., priority 2003, dated 2012).

Tests used:
[1] = system: B. ovis eggs; test: Egg hatching in Bovicola ovis; type: in vivo; conditions: 10 mM
Experimental: B. ovis eggs were collected from the wool of sheep that were infested with this parasite. The eggs were collected using forceps and with the aid of a dissecting microscope and placed in 24 well tissue culture plates in duplicate lots of 10 eggs per replicate. The eggs were then exposed to either methanol alone (control) or the test compounds for either 10 minutes or 1 minute before being removed from the wells and placed into individual glass vials containing a diet at the base of the tube. The tubes were placed in plastic containers containing a salt solution (to keep humidity constant at 68%) and the containers maintained at a temperature 32° C. The eggs were monitored for hatching over the following 12 days and % hatch inhibition determined in comparison to the controls.

[2] = system: Plutella xylostella eggs (Waite strain); test: Reversal of ovicidal effect by FeSO4 on Plutella xylostella eggs; type: in vivo
Experimental: (§1) Within 24 hours of collection the following experimental design was chosen. Batches of eggs were exposed to 10 mM 6,69-dimethyl-2,29-dipyridyl for 2 seconds while additional batches of eggs were exposed to the solvent only (Methanol) for 2 seconds. All batches of eggs were allowed to air dry for 20 minutes at room temperature. The eggs were then given a 2 second exposure to FeSO4 at either 10, 5 or 1 mM, air dried and put in the incubator at 24° C. and allowed to hatch over the next 6 days. In addition, a positive control of 10 mM 6,69-dimethyl-2,29-dipyridyl was set up in which eggs were exposed to this compound for 2 seconds, air dried and placed in the incubator.
as §1, with “10 mM 5,59-dimethyl-2,29-dipyridyl for 2” for “10 mM 6,69-dimethyl-2,29-dipyridyl for 2”, “FeSO4 at 10, 5” for “FeSO4 at either 10, 5”, “put in an incubator at” for “put in the incubator at”, “of 10 mM, 5,59-dimethyl-2,29-dipyridyl was set” for “of 10 mM 6,69-dimethyl-2,29-dipyridyl was set”

[3] = system: Helicoverpa armigera eggs (Tatura×Toowoomba strains); test: Egg hatch of Helicoverpa armigera after exposure to inhibitor; conditions: for % Inhibition of egg hatch relative to control / Number hatched / Number unhatched / % Inhibition of egg hatch relative to the control: day 6 post laying
Experimental: Several hundred Helicoverpa armigera eggs (Tatura×Toowoomba strains) were collected, that had been laid on fine mesh cloth over a 24 hour period.
Batches of Helicoverpa eggs were exposed to a specific inhibitor solution for between 2-10 seconds the excess solution drained by blotting with dry tissue paper. The egg masses were then placed in a humid box at 25 degrees until egg hatch. Control eggs were exposed to absolute methanol as described above.

[4] = system: Plutella xylostella eggs (Waite strain); test: Egg hatch of Plutella xylostella after dipping in inhibitor
Experimental: The egg masses were then placed in a humid box at 25 degrees until egg hatch. Control eggs were exposed to absolute methanol as described above. At day 6 post laying the eggs were assessed from the different treatments and the percentage of egg hatch determined relative to the control as shown in Table 9.
Batches of Plutella eggs that were laid on either fine cloth or parafilm were dipped in a specific inhibitor solution for between 2-10 seconds, the excess solution was drained by blotting with dry tissue paper. The egg masses were then placed in a humid box at 25 degrees until egg hatch. Control eggs were exposed to absolute methanol as described above or not treated.
The egg masses were then placed in a humid box at 25 degrees until egg hatch. Control eggs were exposed to absolute ethanol as described above. On day 6 post laying the eggs were assessed from the different treatments and the percentage of egg hatch determined relative to the control.

[5] = system: lice eggs; test: Time course in vitro lice egg hatching assay; type: in vivo, Pediculus humanus humanus; conditions: for effect on egg hatching (in words): results not shown
[6] = 10 mM followed by 2 second exposure to 1 mM FeSO4
[7] = 10 mM followed by 2 second exposure to 5 mM FeSO4
[8] = 10 mM followed by 2 second exposure to 10 mM FeSO4
[9] = 10 mM followed by 2 second exposure to MEOH
[10] = 10 mM, 2 seconds, (+ve) control, no second exposure
[11] = 10 and 1 mM, listed as 6,6′ dimethyl-2,2′ dipyridyl
[12] = Example 12, 0.001 mM, day 6 post laying
[13] = Example 12, 0.01 mM, day 6 post laying
[14] = Example 12, 0.1 mM, day 6 post laying
[15] = Example 12, 1 mM, day 6 post laying
[16] = Example 12, 10 mM, day 6 post laying
[17] = Example 13, eggs laid on cloth, 0.01 mM
[18] = Example 13, eggs laid on cloth, 0.1 mM
[19] = Example 13, eggs laid on cloth, 1 mM
[20] = Example 13, eggs laid on cloth, 10 mM
[21] = Example 13, eggs laid on parafilm, 0.01 mM
[22] = Example 13, eggs laid on parafilm, 0.1 mM
[23] = Example 13, eggs laid on parafilm, 1 mM
[24] = Example 13, eggs laid on parafilm, 10 mM
[25] = per replicate, […], concentration not given

## Cc1cccc(-c2cccc(C)n2)n1 [6,6′-dimethyl-2,2′-dipyridyl]
[1]; 10 or 1 minute exposure
  inhibition of egg hatching (in words): completely inhibited
[1]; 1 minute exposure
  % Inhibition: 100%
[1]; 10 minute exposure
  % Inhibition: 100%
[2]; [6]
  % Inhibition: 3%
  Number hatched: 33
  Number unhatched: 1
[2]; [7]
  % Inhibition: 0%
  Number hatched: 25
  Number unhatched: 0
[2]; [8]
  % Inhibition: 38%
  Number hatched: 12
  Number unhatched: 19
[2]; [9]
  % Inhibition: 90%
  Number hatched: 3
  Number unhatched: 28
[2]; 10 mM inhibitor, then FeSO4 10, 5 or 1 mM
  effect of added Fe (FeSO4) on the ovicidal effect (in words): able to reverse the effects
[2]; [10]
  % Inhibition: 100%
  Number hatched: 0
  Number unhatched: 44
[3]; 0.1 mM
  inhibition of egg hatching of Helicoverpa armigera (in words): no inhibition of egg hatching
[3]; 10 and 1 mM
  inhibition of egg hatching of Helicoverpa armigera (in words): significantly inhibit the egg hatching
[3]; [11]
  inhibition of egg hatching of Helicoverpa armigera (in words): significantly inhibit egg hatching
[3]; Example 14, 0.001 mM
  % Inhibition of egg hatch relative to control: 0%
[3]; Example 14, 0.01 mM
  % Inhibition of egg hatch relative to control: 0%
[3]; Example 14, 0.1 mM
  % Inhibition of egg hatch relative to control: 0%
[3]; Example 14, 1 mM
  % Inhibition of egg hatch relative to control: 97%
  Number hatched: 4
  Number unhatched: 140
[3]; Example 14, 10 mM
  % Inhibition of egg hatch relative to control: 94%
  Number hatched: 7
  Number unhatched: 98
[3]; Example 15, 0.1 mM
  % Inhibition of egg hatch relative to the control: 0%
  Number hatched: 70
  Number unhatched: 0
[3]; Example 15, 1 mM
  % Inhibition of egg hatch relative to the control: 97%
  Number hatched: 2
  Number unhatched: 61
[3]; Example 15, 10 mM
  % Inhibition of egg hatch relative to the control: 94%
  Number hatched: 3
  Number unhatched: 48
[3]; concentrations below 1 mM
  inhibition of egg hatching of Helicoverpa armigera (in words): No inhibition
[4]; 0.1 and 0.01 mM
  inhibition of egg hatching in Plutella xylostella (in words): no observable effects on egg hatching
[4]; [11]
  inhibition of egg hatching in Plutella xylostella (in words): strong ovicidal effects
[4]; 10 and 1 mM, listed as 6,6′-dimethyl-2,2′ dipyridyl
  inhibition of egg hatching in Plutella xylostella (in words): effective at inhibiting egg hatching
[4]; [12]
  % Inhibition of egg hatch relative to control: 0%
  Number hatched: 11
  Number unhatched: 6
[4]; [13]
  % Inhibition of egg hatch relative to control: 0%
  Number hatched: 13
  Number unhatched: 7
[4]; [14]
  % Inhibition of egg hatch relative to control: 0%
  Number hatched: 23
  Number unhatched: 29
[4]; [15]
  % Inhibition of egg hatch relative to control: 100%
  Number hatched: 0
  Number unhatched: 26
[4]; [16]
  % Inhibition of egg hatch relative to control: 100%
  Number hatched: 0
  Number unhatched: 79
[4]; [17]
  % Inhibition of egg hatch relative to controls: 12%
  Number hatched: 23
  Number unhatched: 4
[4]; [18]
  % Inhibition of egg hatch relative to controls: 0%
  Number hatched: 49
  Number unhatched: 49
[4]; [19]
  % Inhibition of egg hatch relative to controls: 100%
  Number hatched: 0
  Number unhatched: 23
[4]; [20]
  % Inhibition of egg hatch relative to controls: 100%
  Number hatched: 0
  Number unhatched: 53
[4]; [21]
  % Inhibition of egg hatch relative to controls: 0%
  Number hatched: 92
  Number unhatched: 4
[4]; [22]
  % Inhibition of egg hatch relative to controls: 7%
  Number hatched: 65
  Number unhatched: 70
[4]; [23]
  % Inhibition of egg hatch relative to controls: 100%
  Number hatched: 0
  Number unhatched: 63
[4]; [24]
  % Inhibition of egg hatch relative to controls: 100%
  Number hatched: 0
[5]; in vivo
  inhibition of lice egg hatching (in words): completely inhibited
[5]; [25]
  H (number of eggs successfully hatched): 0
  Ph (number of eggs partly hatched): 0

## O=C(O)CN(CCN(CC(=O)O)CC(=O)O)CC(=O)O [EDTA, reference compound]
[5]; 100 mM
  effect on egg hatching (in words): did not appear to have an effect on egg hatching

## O=C(O)CN(CCOCCOCCN(CC(=O)O)CC(=O)O)CC(=O)O [EGTA, reference compound]
[5]; 10 mM
  effect on egg hatching (in words): did not appear to have an effect on egg hatching

## CC(C)C[C@H](CC(=O)O)C(=O)N[C@@H](Cc1c[nH]c2ccccc12)C(=O)N[C@@H](C)c1ccccc1 [GM 1489, reference compound]
[5]; concentration not given
  % Inhibition of lice egg hatching (maximum over the time-course): 0%
